Values quoted from earlier work, collected in paper PMC4561207 (Child's nervous system : ChNS : official journal of the …, 2015).

Details: adults treated with a 5 mg flat dose; cited from earlier work

With `COc1cc2c(Oc3ccc4[nH]c(C)cc4c3F)ncnc2cc1OCCCN1CCCC1` [cediranib, Cediranib] as the compound, how does the “steady-state systemic exposure (AUC)” value read?
Its value is 226 ng·h/mL.
